Earlier results in PubChem BioAssay AID1259409 (Chemical Carcinogenesis Research Information System (CCRIS), 2018).
*1 amine or outer side, *2 acyl side, *3 side chain or, on linkers, in order; H or OH if unused. Where a SMILES comes first, the peptide text is derived from it. [ ]: non-standard residue; d: D form. X1 = O=C(C(N[*:1])c1ccc(OS(=O)(=O)O)cc1)[*:2]

Test system: rodent chemically induced tumor inhibition, incidence and multiplicity
Assay: CCRIS tumor inhibitor studies
Conditions: Carcinogen: N-NITROSOBIS(2-OXOPROPYL)AMINE, 60599-38-4, Route [Inhibitor]: SUBCUTANEOUS, Species: HAMSTER, Strain/Sex: SYRIAN/MALE, FEMALE, Promoter: NONE USED

## CCC(C)C(NC(=O)C(CCCNC(=N)N)NC(=O)C(Cc1c[nH]cn1)NC(=O)C(CO)NC(=O)C1CCCN1C(=O)C(CC(=O)O)NC(=O)C(CC(C)C)NC(=O)C(CC(N)=O)NC(=O)C(CCC(N)=O)NC(=O)C(CC(C)C)NC(=O)C(CC(N)=O)NC(=O)C(CCCCN)NC(=O)C(NC(=O)C(NC(=O)C(CO)NC(=O)C(CCSC)NC(=O)C(CCCNC(=N)N)NC(=O)CNC(=O)C(CO)NC(=O)C1CCCN1C(=O)C(C)NC(=O)C(N)CCCCN)C(C)CC)C(C)C)C(=O)NC(CO)C(=O)NC(CC(=O)O)C(=O)NC(CCCNC(=N)N)C(=O)NC(CC(=O)O)C(=O)NC(C(=O)NC(CCSC)C(=O)NCC(=O)NC(Cc1c[nH]c2ccccc12)C(=O)NC(CCSC)C(=O)NC(CC(=O)O)C(=O)NC(Cc1ccccc1)C(N)=O)c1ccc(OS(=O)(=O)O)cc1 (stereo not given) (H-KAPSGRMSIVKNLQNLDPSHRISDRD[X1]MGWMDF-NH2; configuration not given here)
Dose [Inhibitor]: 20 IDU/KG BW 6/D FOR 15 WK FIRST DOSE GIVEN 3 HR POST CARCINOGEN DOSE (STUDY DURATION: 46 WK), Target Tissue: Type of Lesion: PANCREAS: DUCTAL/DUCTULAR CARCINOMA, Dose [Carcinogen]: 20 MG/KG BW IN PHYSIOLOGICAL SALINE ONCE
  tumour outcome (control, treated, inhibition, significance): 21/40 (52%), 10/37 (27%), 48%, p<0.05
Dose [Inhibitor]: 20 IDU/KG BW 6/D FOR 15 WK FIRST DOSE GIVEN 3 HR POST CARCINOGEN DOSE (STUDY DURATION: 46 WK), Target Tissue: Type of Lesion: PANCREAS: DUCTULAR ADENOMA, Dose [Carcinogen]: 20 MG/KG BW IN PHYSIOLOGICAL SALINE ONCE
  tumour outcome (control, treated, inhibition, significance): 31/40 (78%), 22/37 (59%), 24%, not calculated
Dose [Inhibitor]: 20 IDU/KG BW 6/D FOR 15 WK FIRST DOSE GIVEN 3 HR POST CARCINOGEN DOSE (STUDY DURATION: 46 WK), Target Tissue: Type of Lesion: PANCREAS: DUCTULAR PROLIFERATION, Dose [Carcinogen]: 20 MG/KG BW IN PHYSIOLOGICAL SALINE ONCE
  tumour outcome (control, treated, inhibition, significance): 37/40 (92%), 35/37 (95%), -3%, not calculated
Dose [Inhibitor]: 20 IDU/KG BW INJECTED AT 30 MIN INTERVALS FOR 6 DOSES, FIRST DOSE GIVEN 3 HR POST CARCINOGEN DOSE (STUDY DURATION: 46 WK, Target Tissue: Type of Lesion: PANCREAS: DUCTAL/DUCTULAR CARCINOMA, Dose [Carcinogen]: 20 MG/KG BW IN PHYSIOLOGICAL SALINE ONCE
  tumour outcome (control, treated, inhibition, significance): 21/40 (52%), 17/39 (44%), 15%, not calculated
Dose [Inhibitor]: 20 IDU/KG BW INJECTED AT 30 MIN INTERVALS FOR 6 DOSES, FIRST DOSE GIVEN 3 HR POST CARCINOGEN DOSE (STUDY DURATION: 46 WK, Target Tissue: Type of Lesion: PANCREAS: DUCTULAR PROLIFERATION, Dose [Carcinogen]: 20 MG/KG BW IN PHYSIOLOGICAL SALINE ONCE
  tumour outcome (control, treated, inhibition, significance): 37/40 (92%), 37/39 (95%), -3%, not calculated
Dose [Inhibitor]: 20 IDU/KG BW INJECTED AT 30 MIN INTERVALS FOR 6 DOSES, FIRST DOSE GIVEN 3 HR POST EACH CARCINOGEN DOSE (STUDY DURATION:, Target Tissue: Type of Lesion: PANCREAS: DUCTAL ADENOMA, Dose [Carcinogen]: 2.5 MG/KG BW IN PHYSIOLOGICAL SALINE 1/WK FOR 20 WK
  tumour outcome (control, treated, inhibition, significance): 17/25 (68%), 20/25 (80%), -18%, not calculated
Dose [Inhibitor]: 20 IDU/KG BW INJECTED AT 30 MIN INTERVALS FOR 6 DOSES, FIRST DOSE GIVEN 3 HR POST EACH CARCINOGEN DOSE (STUDY DURATION:, Target Tissue: Type of Lesion: PANCREAS: DUCTAL PROLIFERATION, Dose [Carcinogen]: 2.5 MG/KG BW IN PHYSIOLOGICAL SALINE 1/WK FOR 20 WK
  tumour outcome (control, treated, inhibition, significance): 22/25 (88%), 23/25 (92%), -5%, not calculated
Dose [Inhibitor]: 20 IDU/KG BW INJECTED AT 30 MIN INTERVALS FOR 6 DOSES, FIRST DOSE GIVEN 3 HR POST EACH CARCINOGEN DOSE (STUDY DURATION:, Target Tissue: Type of Lesion: PANCREAS: DUCTAL/DUCTULAR CARCINOMA, Dose [Carcinogen]: 2.5 MG/KG BW IN PHYSIOLOGICAL SALINE 1/WK FOR 20 WK
  tumour outcome (control, treated, inhibition, significance): 15/25 (60%), 23/25 (92%), -53%, not calculated
Dose [Inhibitor]: 20 IDU/KG BW INJECTED AT 30 MIN INTERVALS FOR 6 DOSES, FIRST DOSE GIVEN SIMULTANEOUSLY WITH CARCINOGEN DOSE (STUDY DURAT, Target Tissue: Type of Lesion: PANCREAS: DUCTAL/DUCTULAR CARCINOMA, Dose [Carcinogen]: 20 MG/KG BW IN PHYSIOLOGICAL SALINE ONCE
  tumour outcome (control, treated, inhibition, significance): 21/40 (52%), 5/39 (13%), 75%, p<0.001
Dose [Inhibitor]: 20 IDU/KG BW INJECTED AT 30 MIN INTERVALS FOR 6 DOSES, FIRST DOSE GIVEN SIMULTANEOUSLY WITH CARCINOGEN DOSE (STUDY DURAT, Target Tissue: Type of Lesion: PANCREAS: DUCTULAR ADENOMA, Dose [Carcinogen]: 20 MG/KG BW IN PHYSIOLOGICAL SALINE ONCE
  tumour outcome (control, treated, inhibition, significance): 31/40 (78%), 23/39 (59%), 24%, not calculated
Dose [Inhibitor]: 20 IDU/KG BW INJECTED AT 30 MIN INTERVALS FOR 6 DOSES, FIRST DOSE GIVEN SIMULTANEOUSLY WITH CARCINOGEN DOSE (STUDY DURAT, Target Tissue: Type of Lesion: PANCREAS: DUCTULAR PROLIFERATION, Dose [Carcinogen]: 20 MG/KG BW IN PHYSIOLOGICAL SALINE ONCE
  tumour outcome (control, treated, inhibition, significance): 37/40 (92%), 35/39 (90%), 2%, not calculated
Dose [Inhibitor]: 20 IDU/KG BW INJECTED AT 30 MIN INTERVALS FOR 6 DOSES, FIRST DOSE GIVEN SIMULTANEOUSLY WITH EACH CARCINOGEN DOSE (STUDY, Target Tissue: Type of Lesion: PANCREAS: DUCTAL ADENOMA, Dose [Carcinogen]: 2.5 MG/KG BW IN PHYSIOLOGICAL SALINE 1/WK FOR 20 WK
  tumour outcome (control, treated, inhibition, significance): 17/25 (68%), 21/24 (88%), -29%, not calculated
Dose [Inhibitor]: 20 IDU/KG BW INJECTED AT 30 MIN INTERVALS FOR 6 DOSES, FIRST DOSE GIVEN SIMULTANEOUSLY WITH EACH CARCINOGEN DOSE (STUDY, Target Tissue: Type of Lesion: PANCREAS: DUCTAL PROLIFERATION, Dose [Carcinogen]: 2.5 MG/KG BW IN PHYSIOLOGICAL SALINE 1/WK FOR 20 WK
  tumour outcome (control, treated, inhibition, significance): 22/25 (88%), 22/24 (92%), -5%, not calculated
Dose [Inhibitor]: 20 IDU/KG BW INJECTED AT 30 MIN INTERVALS FOR 6 DOSES, FIRST DOSE GIVEN SIMULTANEOUSLY WITH EACH CARCINOGEN DOSE (STUDY, Target Tissue: Type of Lesion: PANCREAS: DUCTAL/DUCTULAR CARCINOMA, Dose [Carcinogen]: 2.5 MG/KG BW IN PHYSIOLOGICAL SALINE 1/WK FOR 20 WK
  tumour outcome (control, treated, inhibition, significance): 15/25 (60%), 18/24 (75%), -25%, not calculated
Dose [Inhibitor]: 20 IDU/KG BW INJECTED AT 30 MIN INTERVALS FOR 6 DOSES, LAST DOSE 3 HR PRIOR TO CARCINOGEN DOSE (STUDY DURATION: 46 WK), Target Tissue: Type of Lesion: PANCREAS: DUCTAL/DUCTULAR CARCINOMA, Dose [Carcinogen]: 20 MG/KG BW IN PHYSIOLOGICAL SALINE ONCE
  tumour outcome (control, treated, inhibition, significance): 21/40 (52%), 8/37 (22%), 58%, p<0.025
Dose [Inhibitor]: 20 IDU/KG BW INJECTED AT 30 MIN INTERVALS FOR 6 DOSES, LAST DOSE 3 HR PRIOR TO CARCINOGEN DOSE (STUDY DURATION: 46 WK), Target Tissue: Type of Lesion: PANCREAS: DUCTULAR ADENOMA, Dose [Carcinogen]: 20 MG/KG BW IN PHYSIOLOGICAL SALINE ONCE
  tumour outcome (control, treated, inhibition, significance): 31/40 (78%), 19/37 (51%), 35%, not calculated
Dose [Inhibitor]: 20 IDU/KG BW INJECTED AT 30 MIN INTERVALS FOR 6 DOSES, LAST DOSE 3 HR PRIOR TO CARCINOGEN DOSE (STUDY DURATION: 46 WK), Target Tissue: Type of Lesion: PANCREAS: DUCTULAR PROLIFERATION, Dose [Carcinogen]: 20 MG/KG BW IN PHYSIOLOGICAL SALINE ONCE
  tumour outcome (control, treated, inhibition, significance): 37/40 (92%), 33/37 (89%), 3%, not calculated
Dose [Inhibitor]: 20 IDU/KG BW INJECTED AT 30 MIN INTERVALS FOR 6 DOSES, LAST DOSE GIVEN 3 HR PRIOR TO EACH CARCINOGEN DOSE (STUDY DURATIO, Target Tissue: Type of Lesion: PANCREAS: DUCTAL ADENOMA, Dose [Carcinogen]: 2.5 MG/KG BW IN PHYSIOLOGICAL SALINE 1/WK FOR 20 WK
  tumour outcome (control, treated, inhibition, significance): 17/25 (68%), 25/29 (89%), -31%, not calculated
Dose [Inhibitor]: 20 IDU/KG BW INJECTED AT 30 MIN INTERVALS FOR 6 DOSES, LAST DOSE GIVEN 3 HR PRIOR TO EACH CARCINOGEN DOSE (STUDY DURATIO, Target Tissue: Type of Lesion: PANCREAS: DUCTAL PROLIFERATION, Dose [Carcinogen]: 2.5 MG/KG BW IN PHYSIOLOGICAL SALINE 1/WK FOR 20 WK
  tumour outcome (control, treated, inhibition, significance): 22/25 (88%), 24/29 (86%), 2%, not calculated
Dose [Inhibitor]: 20 IDU/KG BW INJECTED AT 30 MIN INTERVALS FOR 6 DOSES, LAST DOSE GIVEN 3 HR PRIOR TO EACH CARCINOGEN DOSE (STUDY DURATIO, Target Tissue: Type of Lesion: PANCREAS: DUCTAL/DUCTULAR CARCINOMA, Dose [Carcinogen]: 2.5 MG/KG BW IN PHYSIOLOGICAL SALINE 1/WK FOR 20 WK
  tumour outcome (control, treated, inhibition, significance): 15/25 (60%), 23/29 (82%), -37%, not calculated
